Read-outs that look alike come from different tables or passages of the source.
Columns and labels:
[1] = Stability and biodistribution of prodrugs in vivo (HPLC of plasma and tissues); parameters: species or system mice (CD-1 nude; BALB/C where indicated); conditions: for stability in vivo (in words): mice
[2] = target: T1, wild type human carboxypeptidase A1 (Homo sapiens, UniProt P15085); experiment: Enzyme kinetics of prodrugs with wild type human carboxypeptidase A1 (coupled assay); assay type: biochemical
T1 sequence (P15085 111-419): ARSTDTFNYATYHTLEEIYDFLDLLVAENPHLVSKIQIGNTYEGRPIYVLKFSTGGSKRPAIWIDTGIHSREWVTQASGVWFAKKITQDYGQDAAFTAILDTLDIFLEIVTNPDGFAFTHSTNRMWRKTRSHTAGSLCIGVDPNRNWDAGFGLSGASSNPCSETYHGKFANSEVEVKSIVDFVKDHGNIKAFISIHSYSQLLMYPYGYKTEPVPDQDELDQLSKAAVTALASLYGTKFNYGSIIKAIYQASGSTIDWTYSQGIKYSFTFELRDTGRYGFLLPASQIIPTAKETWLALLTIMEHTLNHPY
How it was run: (§1)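 Coupled spectrophotometric assay: released methotrexate converted by excess carboxypeptidase G (17 milliunits) to its pteroate, followed at 315 nm (Δε 9.57 mM^-1 cm^-1). 25° C in 25 mM tris-HCl, 100 mM NaCl, pH 7.4; reaction started with wild-type or mutant carboxypeptidase A. Kinetic constants from initial velocities by Michaelis-Menten analysis.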

268ala = experiment: Enzyme kinetics of prodrugs with 268ala mutant of human CPA1 (coupled assay); assay type: biochemical; conditions: 25° C., pH 7.4
How it was run: as §1

268gly = experiment: Enzyme kinetics of prodrugs with 268gly mutant of human CPA1 (coupled assay); assay type: biochemical; conditions: for kcat/Km: 268Gly
How it was run: as §1

mutant enzyme = experiment: Substrate behaviour with mutant enzyme; assay type: biochemical, human
Excerpt: This type of compound is not useful for ADEPT.

in vivo = conditions: mouse, iv
[3] = CECUM, 30 min, 50 mg/kg i.p. or i.v., CD-1 nude mice
[4] = CECUM, 120 min, 50 mg/kg i.p. or i.v., CD-1 nude mice
[5] = FECES, 30 min, 50 mg/kg i.p. or i.v., CD-1 nude mice
[6] = FECES, 120 min, 50 mg/kg i.p. or i.v., CD-1 nude mice
[7] = KIDNEY, 30 min, 50 mg/kg i.p. or i.v., CD-1 nude mice
[8] = KIDNEY, 120 min, 50 mg/kg i.p. or i.v., CD-1 nude mice
[9] = LARGE INTESTINE, 30 min, 50 mg/kg i.p. or i.v., CD-1 nude mice
[10] = LARGE INTESTINE, 120 min, 50 mg/kg i.p. or i.v., CD-1 nude mice
[11] = LIVER, 30 min, 50 mg/kg i.p. or i.v., CD-1 nude mice
[12] = LIVER, 120 min, 50 mg/kg i.p. or i.v., CD-1 nude mice
[13] = SMALL INTESTINE, 30 min, 50 mg/kg i.p. or i.v., CD-1 nude mice
[14] = SMALL INTESTINE, 120 min, 50 mg/kg i.p. or i.v., CD-1 nude mice
[15] = SPLEEN, 30 min, 50 mg/kg i.p. or i.v., CD-1 nude mice
[16] = mouse, cecum, 50 mg/kg, CECUM, 30 min, 50 mg/kg i.p. or i.v., CD-1 nude mice, read-out: stability: percentage of material observed as intact prodrug, cecum
[17] = mouse, cecum, 50 mg/kg, CECUM, 120 min, 50 mg/kg i.p. or i.v., CD-1 nude mice, read-out: stability: percentage of material observed as intact prodrug, cecum
[18] = mouse, feces, 50 mg/kg, FECES, 30 min, 50 mg/kg i.p. or i.v., CD-1 nude mice, read-out: stability: percentage of material observed as intact prodrug, feces (converted)
[19] = mouse, feces, 50 mg/kg, FECES, 120 min, 50 mg/kg i.p. or i.v., CD-1 nude mice, read-out: stability: percentage of material observed as intact prodrug, feces
[20] = mouse, kidney, 50 mg/kg, KIDNEY, 30 min, 50 mg/kg i.p. or i.v., CD-1 nude mice, read-out: stability: percentage of material observed as intact prodrug, kidney
[21] = mouse, kidney, 50 mg/kg, KIDNEY, 120 min, 50 mg/kg i.p. or i.v., CD-1 nude mice, read-out: stability: percentage of material observed as intact prodrug, kidney
[22] = mouse, large intestine, 50 mg/kg, LARGE INTESTINE, 30 min, 50 mg/kg i.p. or i.v., CD-1 nude mice, read-out: stability: percentage of material observed as intact prodrug, large intestine
[23] = mouse, large intestine, 50 mg/kg, LARGE INTESTINE, 120 min, 50 mg/kg i.p. or i.v., CD-1 nude mice, read-out: stability: percentage of material observed as intact prodrug, large intestine
[24] = mouse, liver, 50 mg/kg, LIVER, 30 min, 50 mg/kg i.p. or i.v., CD-1 nude mice, read-out: stability: percentage of material observed as intact prodrug, liver (converted)
[25] = mouse, liver, 50 mg/kg, LIVER, 120 min, 50 mg/kg i.p. or i.v., CD-1 nude mice, read-out: stability: percentage of material observed as intact prodrug, liver
[26] = mouse, plasma, 50 mg/kg, PLASMA, 30 min, 50 mg/kg i.p. or i.v., CD-1 nude mice, read-out: concentration of prodrug in plasma
[27] = mouse, plasma, 50 mg/kg, PLASMA, 30 min, 50 mg/kg i.p. or i.v., CD-1 nude mice, read-out: stability: percentage of material observed as intact prodrug, plasma
[28] = mouse, small intestine, 50 mg/kg, SMALL INTESTINE, 30 min, 50 mg/kg i.p. or i.v., CD-1 nude mice, read-out: stability: percentage of material observed as intact prodrug, small intestine
[29] = mouse, small intestine, 50 mg/kg, SMALL INTESTINE, 120 min, 50 mg/kg i.p. or i.v., CD-1 nude mice, read-out: stability: percentage of material observed as intact prodrug, small intestine
[30] = mouse, spleen, 50 mg/kg, SPLEEN, 30 min, 50 mg/kg i.p. or i.v., CD-1 nude mice, read-out: stability: percentage of material observed as intact prodrug, spleen

In the case of CN(Cc1cnc2nc(N)nc(N)c2n1)c1ccc(C(=O)N[C@@H](CCC(=O)O)C(=O)N[C@@H](Cc2ccccc2C2CCCC2)C(=O)O)cc1 [Prodrug 8], the “concentration of prodrug in cecum” value [1, 3] is reported as 6.8 nmol/g, the “concentration of prodrug in cecum” value [1, 4] is reported as 235.1 nmol/g and the “concentration of prodrug in feces” value [1, 5] is reported as 150.2 nmol/g. The “concentration of prodrug in feces” value [1, 6] was 646.2 nmol/g, the “concentration of prodrug in kidney” value [1, 7] was 5.6 nmol/g and the “concentration of prodrug in kidney” value [1, 8] was 3.2 nmol/g. The “concentration of prodrug in large intestine” value [1, 9] was 5.2 nmol/g, the “concentration of prodrug in large intestine” value [1, 10] was 27.3 nmol/g and the “concentration of prodrug in liver” value [1, 11] was 113.5 nmol/g. The “concentration of prodrug in liver” value [1, 12] was 43.9 nmol/g, the “concentration of prodrug in small intestine” value [1, 13] was 364.5 nmol/g and the “concentration of prodrug in small intestine” value [1, 14] was 31.7 nmol/g. The “concentration of prodrug in spleen” value [1, 15] was 1.4 nmol/g, the “concentration of prodrug in spleen” value ([1]; SPLEEN, 120 min, 50 mg/kg i.p. or i.v., CD-1 nude mice) was 1.1 nmol/g and the “stability in vivo (in words)” value ([1]; 50 mg/kg) was “stable in vivo”. The remaining at 0.5 h [1, 16] was 75%, the remaining at 2 h [1, 17] was 56% and the remaining at 0.5 h [1, 18] was 71%. The remaining at 2 h [1, 19] was 55%, the remaining at 0.5 h [1, 20] was 84% and the remaining at 2 h [1, 21] was 81%. For the same compound, the remaining at 0.5 h [1, 22] was 93%, the remaining at 2 h [1, 23] was 57% and the remaining at 0.5 h [1, 24] was 90%. The remaining at 2 h [1, 25] was 76%, the concentration at 0.5 h [1, 26] was 28500 nM and the remaining at 0.5 h [1, 27] was 95%. For the same compound, the concentration at 2 h ([1]; mouse, plasma, 50 mg/kg, PLASMA, 120 min, 50 mg/kg i.p. or i.v., CD-1 nude mice, read-out: concentration of prodrug in plasma) was 1100 nM, the remaining at 2 h ([1]; mouse, plasma, 50 mg/kg, PLASMA, 120 min, 50 mg/kg i.p. or i.v., CD-1 nude mice, read-out: stability: percentage of material observed as intact prodrug, plasma) was 90% and the remaining at 0.5 h [1, 28] was 77%. It also gave a remaining at 2 h [1, 29] of 35%, a remaining at 0.5 h [1, 30] of 98% and a remaining at 2 h ([1]; mouse, spleen, 50 mg/kg, SPLEEN, 120 min, 50 mg/kg i.p. or i.v., CD-1 nude mice, read-out: stability: percentage of material observed as intact prodrug, spleen) of 100%. For the same compound, the “kcat/Km for human CPA1 compared with that of the L-phenylalanine prodrug (in words)” value [2] was “much lower”, the “substrate for wild type CPA (in words)” value [2] was “not for the wild type enzyme” and the kcat ([2]; Human CPA1, 25° C., pH 7.4) was 0.012 s⁻¹. It also gave a Km (268ala) of 56 µM, a kcat (268ala) of 0.088 s⁻¹ and a kcat/Km (268gly) of 157000 M⁻¹ s⁻¹. The Km (268gly; 268gly, 25° C., pH 7.4) was 15 µM, the kcat (268gly; 268gly, 25° C., pH 7.4) was 2.35 s⁻¹ and the “substrate for a mutant enzyme (in words)” value (mutant enzyme) was “good substrates for a mutant enzyme”. For the same compound, the MTD (in vivo) was no less than 20 mg/kg.

For CN(Cc1cnc2nc(N)nc(N)c2n1)c1ccc(C(=O)N[C@@H](CCC(=O)O)C(=O)N[C@@H](Cc2cccc(C3CCCC3)c2)C(=O)O)cc1 [Prodrug 9], the “concentration of prodrug in cecum” value [1, 3] was 4.l, the “concentration of prodrug in cecum” value [1, 4] was 108.3 nmol/g and the “concentration of prodrug in feces” value ([1]; FECES, 30 min, 50 mg/kg i.p. or i.v., BALB/C mice) was 1604.27 nmol/g. For the same compound, the “concentration of prodrug in feces” value [1, 5] was 1104.1 nmol/g, the “concentration of prodrug in feces” value [1, 6] was 1505.7 nmol/g and the “concentration of prodrug in kidney” value [1, 7] was 6.8 nmol/g. For the same compound, the “concentration of prodrug in kidney” value [1, 8] was 1.3 nmol/g, the “concentration of prodrug in large intestine” value [1, 9] was 2.6 nmol/g and the “concentration of prodrug in large intestine” value [1, 10] was 6.2 nmol/g. The “concentration of prodrug in liver” value [1, 11] was 54.3 nmol/g, the “concentration of prodrug in liver” value [1, 12] was 126.2 nmol/g and the “concentration of prodrug in small intestine” value ([1]; SMALL INTESTINE, 30 min, 50 mg/kg i.p. or i.v., BALB/C mice) was 420.3 nmol/g. The “concentration of prodrug in small intestine” value [1, 13] was 377.9 nmol/g, the “concentration of prodrug in small intestine” value [1, 14] was 211.0 nmol/g and the “concentration of prodrug in spleen” value [1, 15] was 8.4 nmol/g. The “stability in vivo (in words)” value ([1]; 50 mg/kg) was “stable in vivo”, the remaining at 0.5 h [1, 16] was 100% and the remaining at 2 h [1, 17] was 99%. The remaining at 0.5 h ([1]; mouse, feces, 50 mg/kg, FECES, 30 min, 50 mg/kg i.p. or i.v., BALB/C mice, read-out: stability: percentage of material observed as intact prodrug, feces (converted)) was 98%, the remaining at 0.5 h [1, 18] was 97% and the remaining at 2 h [1, 19] was 94%. The remaining at 0.5 h [1, 20] was 100%, the remaining at 2 h [1, 21] was 100% and the remaining at 0.5 h [1, 22] was 100%. The remaining at 2 h [1, 23] was 100%, the remaining at 0.5 h [1, 24] was 83% and the remaining at 2 h [1, 25] was 94%. It also gave a concentration at 0.5 h ([1]; mouse, plasma, 50 mg/kg, PLASMA, 30 min, 50 mg/kg i.p. or i.v., BALB/C mice, read-out: concentration of prodrug in plasma) of 4900 nM, a remaining at 0.5 h ([1]; mouse, plasma, 50 mg/kg, PLASMA, 30 min, 50 mg/kg i.p. or i.v., BALB/C mice, read-out: stability: percentage of material observed as intact prodrug, plasma) of 100% and a concentration at 0.5 h [1, 26] of 1100 nM. For the same compound, the remaining at 0.5 h [1, 27] was 100%, the remaining at 0.5 h ([1]; mouse, small intestine, 50 mg/kg, SMALL INTESTINE, 30 min, 50 mg/kg i.p. or i.v., BALB/C mice, read-out: stability: percentage of material observed as intact prodrug, small intestine) was 98% and the remaining at 0.5 h [1, 28] was 97%. For the same compound, the remaining at 2 h [1, 29] was 93%, the remaining at 0.5 h [1, 30] was 100% and the “human CPA catalyzed reaction (in words)” value [2] was “not measureable”. The “kcat/Km for human CPA1 compared with that of the L-phenylalanine prodrug (in words)” value [2] was “much lower”, the “substrate for wild type CPA (in words)” value [2] was “not for the wild type enzyme” and the kcat/Km (268gly) was 92000 M⁻¹ s⁻¹. The “substrate for a mutant enzyme (in words)” value (mutant enzyme) was “good substrates for a mutant enzyme”.
